{"source": "paper PMC13081163", "about": "“Discovery of a novel Nrf2 activator that modulates mitochondrial function in neurons by regulating DHRS3-Nrf2 interaction after ischemic stroke” (Theranostics, 2026)", "key": {"[1]": {"assay": "Microsomal metabolic stability, dog", "assay_type": "in vitro ADME", "details": "dog liver microsomes", "method": "The liver microsomal incubation system comprised human, dog, or rat liver microsomal protein (0.75 mg/mL), nicotinamide adenine dinucleotide phosphate (NADPH) generation system, potassium phosphate buffer (0.1 M, pH 7.4), substrate, and inhibitor. The assay was conducted by first preparing a potassium phosphate buffer. Compounds and liver microsomes were then diluted and pre-incubated at 37 °C before initiating the reaction with NADPH. Aliquots were quenched with acetonitrile containing internal standard at specified time points. After sample processing (shaking and centrifugation), the supernatants were analyzed by LC-MS/MS to determine metabolic stability."}, "[2]": {"test_system": "rat transient Middle Cerebral Artery Occlusion (tMCAO) model", "assay": "Rat tMCAO model, acute phase (TTC, mNSS, peri-infarct cortex)", "assay_type": "in vivo", "method": "Cpd.51 was dissolved in solvent (10% DMSO, 10% Solutol HS-15 and 80% saline). It was injected (i.v.) at dose of 3 mg/kg or 5 mg/kg in a 0.5 mL volume. The Sham group and Vehicle group were treated simultaneously with an equal volume of solvent. In the experiment to explore the treatment time window, we merely administered the drug to the rats at different time points, while all other procedures remained unchanged. In the short-term toxicity study, 10 mg/kg Cpd.51 and Oma were administered via tail vein injection at 0.5 mL daily for 7 consecutive days.\nAll rats were fasted for more than 12 h before the operation began. Transient focal cerebral ischemia was induced by middle cerebral artery occlusion (MCAO) in rat, as previously described, [29]. In short, after anesthetizing the rats with 2.5% tribromoethanol, the right common carotid artery (CCA), external carotid artery (ECA), and internal carotid artery (ICA) were isolated. […] The body temperature of the animals was maintained between 36.5 °C and 37.5 °C.\nAfter the behavioral assessments, rats were euthanized and the brain harvested. Brain tissue was cut into five coronal sections (2 mm thick) and incubated in 2% TTC (298-96-4, TCI, Japan) for 20 min at 37 °C. The volume of ischemic brain injury was measured using ImageJ (US National Institutes of […], Bethesda, MD, USA).\n(§1) To assess the degree of neurological impairment, we conducted modified Neurological Severity Score (mNSS) according to previous experience. The investigator was blinded to the grouping situation during the whole experiment.\nThe anesthetized-animals were transcardially perfused with 0.9% saline in vivo. The ischemic penumbral tissue was isolated from rats and grinded in PBS. Similarly, in vitro, the cells were digested with pancreatic enzymes and placed in PBS. Next, repeatedly freeze and thaw three times in liquid nitrogen and 37 °C water. Sample supernatant was taken for testing according to the MDA or GSH assay kit instructions (S0131M or S0053, Beyotime, China).\nBrain tissue was fixed with 4% paraformaldehyde and immersed in 15% sucrose and 30% sucrose at 4 °C overnight. Coronal brain sections (thickness = 20 μm) were incubated with blocking solution for 1.5 h at room temperature followed by incubation with primary antibodies: anti-Nrf2 (1:200, CST), anti-DHRS3 (1:300, Proteintech), anti-NeuN (1:500, Servicebio), anti-GFAP (1:500, Abcam) and anti-Iba-1 (1:500, Abcam). Subsequent immunostaining assays were performed as previously described of cells."}, "tMCAO rats": {"test_system": "tMCAO rats", "assay": "Long-term recovery after tMCAO (survival, body weight, behaviour)", "assay_type": "in vivo, rat", "details": "5 mg/kg tail vein injection for 7 d", "method": "as §1\nOn postoperative day 3 two wooden boards of identical size were joined at a 30° angle, with a narrow gap retained at the junction. The rat was positioned facing the apex of the angle. When it advanced into the deeper part of the angle, bilateral whisker contact with the boards triggered a characteristic rearing response, followed by a turn to face the opposite direction. Each rat underwent 15 trials, and the number of right turns was recorded. The higher the right-turn ratio, the more severe the injury.\nRats were placed on a horizontal, stainless steel wire grid. The grid was then smoothly rotated 180 degrees to an inverted position and held stationary at a height of 0.8 m. A stopwatch was started immediately upon inversion to measure the latency to fall. The test was terminated if the animal remained on the grid for 60 s, at which point it was gently returned to its home cage, and a score of 60 s was recorded.\nThe Y-maze apparatus consisted of three symmetrically arranged enclosed arms (typically labeled Arms A, B, and C), each positioned 120° apart. At the start of each trial, the subject was placed in Arm A and allowed to move freely through the maze for 8 min. Spatial working memory was evaluated by calculating the spontaneous alternation rate, using the following formula:\nFollowing a 2 h acclimation period, the rats were within an open field cubic box (100 × 100 × 40 cm^3) and allowed 5 min of unrestricted movement. The travel distance and the time spent in the central area were recorded.\nThe spatial learning and memory of rats were assessed using the Morris water maze (MWM) from post-operative days 23 to 26. Over four consecutive days, animals underwent training trials in which they were required to locate a submerged escape platform within 60 s. Each rat was gently placed into the water facing the pool wall. If the rat found the platform and remained on it for 10 s, the escape latency was recorded. If the platform was not found within 60 s, the rat was guided onto it and allowed to stay for 10 s, and the latency was recorded as 60 s. Following the training phase, the platform was removed, and a visual spatial memory test lasting for 60 s was conducted to assess the retention of memory. The number of platform-location crossings and the time spent in the target quadrant were recorded and analyzed."}, "Keap1-Nrf2": {"target": "T1, Keap1-Nrf2 (Homo sapiens, UniProt Q14145)", "T1 construct": "endogenous in cells; host or cells: SH-SY5Y", "T1 sequence (Q14145 whole entry)": "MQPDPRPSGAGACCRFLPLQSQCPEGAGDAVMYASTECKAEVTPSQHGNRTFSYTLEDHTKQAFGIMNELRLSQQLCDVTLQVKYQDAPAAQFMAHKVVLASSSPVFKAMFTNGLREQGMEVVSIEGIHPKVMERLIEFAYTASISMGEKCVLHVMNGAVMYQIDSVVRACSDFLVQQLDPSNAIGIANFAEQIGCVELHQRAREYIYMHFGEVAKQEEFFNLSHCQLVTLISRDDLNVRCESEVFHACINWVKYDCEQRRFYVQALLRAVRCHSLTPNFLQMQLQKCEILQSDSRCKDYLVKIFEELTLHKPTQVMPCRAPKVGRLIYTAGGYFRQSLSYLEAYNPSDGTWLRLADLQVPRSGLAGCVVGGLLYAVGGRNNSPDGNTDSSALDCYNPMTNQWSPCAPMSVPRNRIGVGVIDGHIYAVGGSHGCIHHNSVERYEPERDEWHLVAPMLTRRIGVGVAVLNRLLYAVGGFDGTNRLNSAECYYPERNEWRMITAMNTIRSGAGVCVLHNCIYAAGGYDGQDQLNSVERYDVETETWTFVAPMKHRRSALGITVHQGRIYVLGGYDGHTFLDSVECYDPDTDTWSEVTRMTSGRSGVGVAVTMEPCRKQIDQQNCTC", "assay": "Co-IP of Keap1-Nrf2 binding in SH-SY5Y cells", "assay_type": "cell-based", "details": "100 nM, physiological and OGD/R conditions", "method": "Co-IP experiments were performed as described. After SH-SY5Y cells were treated, lysates were collected and incubated with antibodies with rotation for 12 h at 4 °C. Then, they were incubated with protein A/G magnetic beads (88804, Thermo Scientific, USA) as specification. Subsequently, the beads were collected and immune complexes were isolated. Finally, protein complexes were incubated for 5 min at 95 °C after dissolving in the electrophoresis sample buffer, and subjected to western blotting."}, "[3]": {"details": "5 mg/kg i.v. at 4 h post-ischemia, read at 24 h"}}, "data": [{"molecule": "CC1(C)CCC2(C(=O)NO)CCC3(C)C(C(=O)C=C4C5(C)C=C(C#N)C(=O)C(C)(C)C5CCC43C)C2C1", "note": "(stereo not drawn) [Cpd.51]", "values": [{"measurement": "Remainig (%, t = 60 min)", "setting": "[1]", "result": 32.9, "unit": "%"}, {"measurement": "CLint scaled", "setting": "[1]; dog, pH 7.4", "result": 51, "unit": "mL/min/kg"}, {"measurement": "half-life", "setting": "[1]; dog, pH 7.4", "result": 39.2, "unit": "min"}, {"measurement": "area of infarction (TTC)", "setting": "[2]; 3 mg/kg and 5 mg/kg i.v. at the same time as ischemia", "result": "significantly reduced the area of infarction"}, {"measurement": "infarction volume, delayed administration", "setting": "[2]; [3]", "result": "significantly diminished infarction volume"}, {"measurement": "mNSS scores, delayed administration", "setting": "[2]; [3]", "result": "improved mNSS scores"}, {"measurement": "Nrf2, HO-1 and NQO1 protein levels in peri-infarct cortex", "setting": "[2]; 24 h post tMCAO, immunoblotting", "result": "significantly upregulated"}, {"measurement": "cell type of Nrf2 enrichment (co-staining NeuN, GFAP, Iba-1)", "setting": "[2]; peri-infarct region, 24 h after ischemia", "result": "Nrf2 was selectively enriched in neurons"}, {"measurement": "mNSS scores", "setting": "[2]; tMCAO rats, i.v.", "result": "significantly inhibited the increase in mNSS scores"}, {"measurement": "GSH and MDA in cortical tissues", "setting": "[2]; tMCAO rats, peri-infarct cortex", "result": "restoring GSH concentrations and suppressing MDA accumulation"}, {"measurement": "Morris water maze, spatial learning and memory", "setting": "tMCAO rats", "result": "only a modest capacity to improve these cognitive functions"}, {"measurement": "body weight and mNSS scores, long-term", "setting": "tMCAO rats", "result": "significantly improved body weight and mNSS scores"}, {"measurement": "mortality after tMCAO", "setting": "tMCAO rats", "result": "reduced mortality"}, {"measurement": "corner, inverted screen, Y maze and open field tests", "setting": "tMCAO rats; vs model group", "result": "exhibited improvements in neurological deficits, motor abilities, and spatial working and reference memory"}, {"measurement": "amount of Nrf2 bound to Keap1 (Co-IP)", "setting": "Keap1-Nrf2", "result": "reduced the amount of Nrf2 bound to Keap1"}]}]}
